According to US20250243180A1, “TARGETED PROTEIN DEGRADATION” (Monte Rosa Therapeutics AG, priority 2023, published 2025):

These compounds were tested against NEK7 (Homo sapiens (Human), UniProt Q8TDX7+Q96SW2) (assay: NEK7 NanoBiT degradation assay in Cal51 NEK7 NanoBiT cell line). Settings: CAL-51; Cal51 NEK7 NanoBiT cells, 24 hours; read-out: NEK7 NanoBiT Dmax.
Sequence of NEK7 (Q8TDX7 whole entry): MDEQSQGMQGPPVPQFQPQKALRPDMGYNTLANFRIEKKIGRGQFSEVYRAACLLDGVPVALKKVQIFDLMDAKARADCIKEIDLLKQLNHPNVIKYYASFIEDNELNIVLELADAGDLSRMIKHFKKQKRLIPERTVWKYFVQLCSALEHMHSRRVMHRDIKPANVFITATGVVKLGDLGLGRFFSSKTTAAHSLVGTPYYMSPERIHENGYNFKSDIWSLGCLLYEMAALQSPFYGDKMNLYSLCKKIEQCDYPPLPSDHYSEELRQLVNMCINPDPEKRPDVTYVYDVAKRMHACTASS
Sequence of NEK7 (Q96SW2 whole entry): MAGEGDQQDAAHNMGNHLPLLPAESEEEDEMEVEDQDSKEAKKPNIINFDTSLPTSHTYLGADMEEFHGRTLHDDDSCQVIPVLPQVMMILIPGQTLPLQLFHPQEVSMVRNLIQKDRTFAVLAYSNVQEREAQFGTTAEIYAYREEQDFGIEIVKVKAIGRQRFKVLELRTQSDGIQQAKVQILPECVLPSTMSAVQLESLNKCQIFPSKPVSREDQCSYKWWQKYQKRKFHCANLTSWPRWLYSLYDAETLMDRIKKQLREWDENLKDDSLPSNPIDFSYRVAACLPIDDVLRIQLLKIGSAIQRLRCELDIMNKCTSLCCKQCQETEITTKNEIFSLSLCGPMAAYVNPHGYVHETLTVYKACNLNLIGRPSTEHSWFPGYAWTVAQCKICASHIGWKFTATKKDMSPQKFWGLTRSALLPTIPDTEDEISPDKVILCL
Sequence of NEK7 (Q16531 2-1140 partner): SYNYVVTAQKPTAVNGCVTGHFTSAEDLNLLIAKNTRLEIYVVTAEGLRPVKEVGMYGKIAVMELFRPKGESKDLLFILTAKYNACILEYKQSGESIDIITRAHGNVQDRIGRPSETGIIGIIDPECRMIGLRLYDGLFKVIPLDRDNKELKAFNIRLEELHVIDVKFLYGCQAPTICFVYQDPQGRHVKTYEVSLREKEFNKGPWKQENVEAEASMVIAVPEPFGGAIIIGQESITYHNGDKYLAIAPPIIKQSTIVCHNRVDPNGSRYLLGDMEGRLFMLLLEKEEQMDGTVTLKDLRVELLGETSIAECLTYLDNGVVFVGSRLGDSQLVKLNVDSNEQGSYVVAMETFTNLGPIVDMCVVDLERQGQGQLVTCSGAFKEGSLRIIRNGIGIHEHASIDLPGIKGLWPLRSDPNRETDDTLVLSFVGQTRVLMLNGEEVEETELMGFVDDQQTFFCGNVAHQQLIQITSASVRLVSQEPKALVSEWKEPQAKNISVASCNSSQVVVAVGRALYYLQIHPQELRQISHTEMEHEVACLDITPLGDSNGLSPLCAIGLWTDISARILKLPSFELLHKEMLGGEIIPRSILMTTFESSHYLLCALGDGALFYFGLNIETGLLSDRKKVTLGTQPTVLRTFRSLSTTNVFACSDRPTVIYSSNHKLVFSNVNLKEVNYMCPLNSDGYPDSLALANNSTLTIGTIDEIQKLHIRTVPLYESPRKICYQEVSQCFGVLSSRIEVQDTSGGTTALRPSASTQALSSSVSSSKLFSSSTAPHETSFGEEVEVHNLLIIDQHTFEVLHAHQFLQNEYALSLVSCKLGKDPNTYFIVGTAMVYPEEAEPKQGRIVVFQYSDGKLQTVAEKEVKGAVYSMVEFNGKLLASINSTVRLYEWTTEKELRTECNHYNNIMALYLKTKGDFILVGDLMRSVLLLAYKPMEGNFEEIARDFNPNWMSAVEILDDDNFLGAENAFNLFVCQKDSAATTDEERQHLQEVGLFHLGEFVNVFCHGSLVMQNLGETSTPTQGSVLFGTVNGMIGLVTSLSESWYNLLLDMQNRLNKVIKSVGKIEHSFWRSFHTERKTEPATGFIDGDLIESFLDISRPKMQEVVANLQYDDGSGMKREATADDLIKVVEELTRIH
Assay type: cell-based
Method in brief: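 Cal51 cells with CRISPR knock-in HiBiT-tagged endogenous NEK7 plus stable LgBiT, in live-cell Endurazine medium, seeded 16 h before dosing. Compounds at final 1 μM to 0.05 nM for 24 h at 37 °C, then luminescence read. Response normalized to plate controls and fitted with a 4-parameter logistic giving EC50.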
Compound Cc1cc(C(C)(C)C(=O)NCc2cc(Cl)c(C3CCC(=O)NC3=O)c(Cl)c2)cc(=O)n1C (stereo not drawn) [Compound 53] has a Dmax of 92%.
With CC(C)(C(=O)NCc1cc(Cl)c(C2CCC(=O)NC2=O)c(Cl)c1)c1cccc(NS(C)(=O)=O)c1 (stereo not drawn) [Compound 54] the Dmax was 97%.
Work on CC(C)(C(=O)NCc1cc(Cl)c(C2CCC(=O)NC2=O)c(Cl)c1)c1ccn2ccnc2c1 (stereo not drawn) [Compound 55] yielded a Dmax of 97%.
CC(C)(C(=O)NCc1ccc(C2CCC(=O)NC2=O)c(Cl)c1)c1ccc(S(N)(=O)=O)cc1 (stereo not drawn) [Compound 56] showed a Dmax of 67%.
CC(C)(C(=O)NCc1cc(Cl)c(C2CCC(=O)NC2=O)c(Cl)c1)c1ccc(C(N)=O)c(F)c1 (stereo not drawn) [Compound 57] gave a Dmax of 94%.
Work on CN(C)S(=O)(=O)c1ccc(C(C)(C)C(=O)NCc2cc(Cl)c(C3CCC(=O)NC3=O)c(Cl)c2)cc1 (stereo not drawn) [Compound 58] yielded a Dmax of 92%.
CC(C)(C(=O)NCc1cc(Cl)c(C2CCC(=O)NC2=O)c(Cl)c1)c1cc(F)[nH]c(=O)c1 (stereo not drawn) [Compound 59] showed a Dmax of 87%.
Work on CC(C)(C(=O)NCc1cc(Cl)c(C2CCC(=O)NC2=O)c(Cl)c1)c1cccc(S(N)(=O)=O)c1 (stereo not drawn) [Compound 60] yielded a Dmax of 96%.

Same assay, conditions: CAL-51; NEK7 degradation, Cal51 NEK7 NanoBiT cells, 24 hours; read-out: NanoBiT Dmax
For Cc1cc(C(C)(C)C(=O)NCc2cc(Cl)c(C3CCC(=O)NC3=O)c(Cl)c2)cc(=O)n1C (stereo not drawn) [Compound 53], the Dmax was over 75%.
CC(C)(C(=O)NCc1cc(Cl)c(C2CCC(=O)NC2=O)c(Cl)c1)c1cccc(NS(C)(=O)=O)c1 (stereo not drawn) [Compound 54] showed a Dmax of over 75%.
For CC(C)(C(=O)NCc1cc(Cl)c(C2CCC(=O)NC2=O)c(Cl)c1)c1ccn2ccnc2c1 (stereo not drawn) [Compound 55], the Dmax was over 75%.
Work on CC(C)(C(=O)NCc1ccc(C2CCC(=O)NC2=O)c(Cl)c1)c1ccc(S(N)(=O)=O)cc1 (stereo not drawn) [Compound 56] yielded a Dmax of 50 to 75%.
CC(C)(C(=O)NCc1cc(Cl)c(C2CCC(=O)NC2=O)c(Cl)c1)c1ccc(C(N)=O)c(F)c1 (stereo not drawn) [Compound 57] was tested, and the Dmax was over 75%.
With CN(C)S(=O)(=O)c1ccc(C(C)(C)C(=O)NCc2cc(Cl)c(C3CCC(=O)NC3=O)c(Cl)c2)cc1 (stereo not drawn) [Compound 58] the Dmax was over 75%.
CC(C)(C(=O)NCc1cc(Cl)c(C2CCC(=O)NC2=O)c(Cl)c1)c1cc(F)[nH]c(=O)c1 (stereo not drawn) [Compound 59] showed a Dmax of over 75%.
In the case of CC(C)(C(=O)NCc1cc(Cl)c(C2CCC(=O)NC2=O)c(Cl)c1)c1cccc(S(N)(=O)=O)c1 (stereo not drawn) [Compound 60], the Dmax is reported as over 75%.

Same assay, conditions: Cal51 NEK7 NanoBiT cells, 24 hours; read-out: NEK7 NanoBiT DC50
Cc1cc(C(C)(C)C(=O)NCc2cc(Cl)c(C3CCC(=O)NC3=O)c(Cl)c2)cc(=O)n1C (stereo not drawn) [Compound 53] was tested, and the DC50 was 11 nM.
In the case of CC(C)(C(=O)NCc1cc(Cl)c(C2CCC(=O)NC2=O)c(Cl)c1)c1cccc(NS(C)(=O)=O)c1 (stereo not drawn) [Compound 54], the DC50 is reported as 1 nM.
CC(C)(C(=O)NCc1cc(Cl)c(C2CCC(=O)NC2=O)c(Cl)c1)c1ccn2ccnc2c1 (stereo not drawn) [Compound 55] showed a DC50 of 1 nM.
CC(C)(C(=O)NCc1ccc(C2CCC(=O)NC2=O)c(Cl)c1)c1ccc(S(N)(=O)=O)cc1 (stereo not drawn) [Compound 56] showed a DC50 of 244 nM.
CC(C)(C(=O)NCc1cc(Cl)c(C2CCC(=O)NC2=O)c(Cl)c1)c1ccc(C(N)=O)c(F)c1 (stereo not drawn) [Compound 57] showed a DC50 of 3 nM.
Compound CN(C)S(=O)(=O)c1ccc(C(C)(C)C(=O)NCc2cc(Cl)c(C3CCC(=O)NC3=O)c(Cl)c2)cc1 (stereo not drawn) [Compound 58] has a DC50 of 6 nM.
CC(C)(C(=O)NCc1cc(Cl)c(C2CCC(=O)NC2=O)c(Cl)c1)c1cc(F)[nH]c(=O)c1 (stereo not drawn) [Compound 59] showed a DC50 of 28 nM.
Compound CC(C)(C(=O)NCc1cc(Cl)c(C2CCC(=O)NC2=O)c(Cl)c1)c1cccc(S(N)(=O)=O)c1 (stereo not drawn) [Compound 60] has a DC50 of 2 nM.

Same assay, conditions: NEK7 degradation, Cal51 NEK7 NanoBiT cells, 24 hours; read-out: NanoBiT DC50
Work on Cc1cc(C(C)(C)C(=O)NCc2cc(Cl)c(C3CCC(=O)NC3=O)c(Cl)c2)cc(=O)n1C (stereo not drawn) [Compound 53] yielded a DC50 of at most 100 nM.
CC(C)(C(=O)NCc1cc(Cl)c(C2CCC(=O)NC2=O)c(Cl)c1)c1cccc(NS(C)(=O)=O)c1 (stereo not drawn) [Compound 54] gave a DC50 of at most 100 nM.
CC(C)(C(=O)NCc1cc(Cl)c(C2CCC(=O)NC2=O)c(Cl)c1)c1ccn2ccnc2c1 (stereo not drawn) [Compound 55] was tested, and the DC50 was at most 100 nM.
CC(C)(C(=O)NCc1ccc(C2CCC(=O)NC2=O)c(Cl)c1)c1ccc(S(N)(=O)=O)cc1 (stereo not drawn) [Compound 56] gave a DC50 of 100 to 1000 nM.
Work on CC(C)(C(=O)NCc1cc(Cl)c(C2CCC(=O)NC2=O)c(Cl)c1)c1ccc(C(N)=O)c(F)c1 (stereo not drawn) [Compound 57] yielded a DC50 of at most 100 nM.
With CN(C)S(=O)(=O)c1ccc(C(C)(C)C(=O)NCc2cc(Cl)c(C3CCC(=O)NC3=O)c(Cl)c2)cc1 (stereo not drawn) [Compound 58] the DC50 was at most 100 nM.
For CC(C)(C(=O)NCc1cc(Cl)c(C2CCC(=O)NC2=O)c(Cl)c1)c1cc(F)[nH]c(=O)c1 (stereo not drawn) [Compound 59], the DC50 was at most 100 nM.
Work on CC(C)(C(=O)NCc1cc(Cl)c(C2CCC(=O)NC2=O)c(Cl)c1)c1cccc(S(N)(=O)=O)c1 (stereo not drawn) [Compound 60] yielded a DC50 of at most 100 nM.

These compounds were tested against CRBN-DDB1 (Homo sapiens (Human), UniProt Q96SW2) (assay: Compound binding to CRBN by HTRF assay). Settings: not given.
Sequence of CRBN-DDB1 (Q96SW2 whole entry): as the sequence (Q96SW2 whole entry) above
Sequence of CRBN-DDB1 (Q16531 whole entry partner): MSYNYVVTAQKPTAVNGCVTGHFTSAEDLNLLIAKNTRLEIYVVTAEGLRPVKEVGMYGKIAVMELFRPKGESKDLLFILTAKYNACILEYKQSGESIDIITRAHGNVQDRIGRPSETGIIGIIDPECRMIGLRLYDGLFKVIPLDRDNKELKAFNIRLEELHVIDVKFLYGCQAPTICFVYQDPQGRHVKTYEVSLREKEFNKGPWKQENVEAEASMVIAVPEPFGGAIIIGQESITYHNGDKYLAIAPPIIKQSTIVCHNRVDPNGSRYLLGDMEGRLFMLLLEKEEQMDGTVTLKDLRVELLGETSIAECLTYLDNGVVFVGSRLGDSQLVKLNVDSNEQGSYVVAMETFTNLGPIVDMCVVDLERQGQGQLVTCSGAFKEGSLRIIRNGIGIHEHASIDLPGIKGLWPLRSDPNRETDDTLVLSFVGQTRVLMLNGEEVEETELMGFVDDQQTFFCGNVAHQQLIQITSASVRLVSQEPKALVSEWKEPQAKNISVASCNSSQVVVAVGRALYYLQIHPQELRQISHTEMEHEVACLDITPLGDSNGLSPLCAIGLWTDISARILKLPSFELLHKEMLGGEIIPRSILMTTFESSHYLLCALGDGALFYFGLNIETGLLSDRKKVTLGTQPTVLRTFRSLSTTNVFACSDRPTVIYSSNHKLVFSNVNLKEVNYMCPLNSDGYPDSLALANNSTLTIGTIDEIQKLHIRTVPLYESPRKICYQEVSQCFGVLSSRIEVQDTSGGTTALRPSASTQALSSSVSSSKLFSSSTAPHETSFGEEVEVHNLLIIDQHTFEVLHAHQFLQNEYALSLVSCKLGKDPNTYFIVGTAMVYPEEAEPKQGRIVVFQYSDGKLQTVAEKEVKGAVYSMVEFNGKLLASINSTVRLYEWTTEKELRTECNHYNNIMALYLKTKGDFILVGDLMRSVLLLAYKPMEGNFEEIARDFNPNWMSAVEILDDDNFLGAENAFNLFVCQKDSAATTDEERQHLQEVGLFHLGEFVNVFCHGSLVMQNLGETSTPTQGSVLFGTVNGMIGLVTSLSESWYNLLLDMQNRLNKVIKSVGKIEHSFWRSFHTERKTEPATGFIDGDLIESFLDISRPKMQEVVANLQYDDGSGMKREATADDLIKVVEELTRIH
Method in brief: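 HTRF displacement of Cy5-thalidomide probe (100 nM) from His-tagged CRBN-DDB1 (2.5 nM) with anti-His terbium cryptate, in HEPES/NaCl/TCEP/EDTA/Tween20 buffer; 11-point 1:3 dilution series, 30 min at ambient temperature. Signal (665/620 nm) normalized to lenalidomide and DMSO controls; EC50 fitted, Ki by Cheng-Prusoff from geometric mean EC50.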
With Cc1cc(C(C)(C)C(=O)NCc2cc(Cl)c(C3CCC(=O)NC3=O)c(Cl)c2)cc(=O)n1C (stereo not drawn) [Compound 53] the EC50 was 190 nM.
With CC(C)(C(=O)NCc1cc(Cl)c(C2CCC(=O)NC2=O)c(Cl)c1)c1cccc(NS(C)(=O)=O)c1 (stereo not drawn) [Compound 54] the EC50 was 60 nM.
CC(C)(C(=O)NCc1cc(Cl)c(C2CCC(=O)NC2=O)c(Cl)c1)c1ccn2ccnc2c1 (stereo not drawn) [Compound 55] was tested, and the EC50 was 100 nM.
With CC(C)(C(=O)NCc1ccc(C2CCC(=O)NC2=O)c(Cl)c1)c1ccc(S(N)(=O)=O)cc1 (stereo not drawn) [Compound 56] the EC50 was 470 nM.
Work on CC(C)(C(=O)NCc1cc(Cl)c(C2CCC(=O)NC2=O)c(Cl)c1)c1ccc(C(N)=O)c(F)c1 (stereo not drawn) [Compound 57] yielded an EC50 of 130 nM.
In the case of CN(C)S(=O)(=O)c1ccc(C(C)(C)C(=O)NCc2cc(Cl)c(C3CCC(=O)NC3=O)c(Cl)c2)cc1 (stereo not drawn) [Compound 58], the EC50 is reported as 130 nM.
Compound CC(C)(C(=O)NCc1cc(Cl)c(C2CCC(=O)NC2=O)c(Cl)c1)c1cc(F)[nH]c(=O)c1 (stereo not drawn) [Compound 59] has an EC50 of 140 nM.
With CC(C)(C(=O)NCc1cc(Cl)c(C2CCC(=O)NC2=O)c(Cl)c1)c1cccc(S(N)(=O)=O)c1 (stereo not drawn) [Compound 60] the EC50 was 60 nM.

Same assay, conditions: HTRF class; Cereblon binding
For Cc1cc(C(C)(C)C(=O)NCc2cc(Cl)c(C3CCC(=O)NC3=O)c(Cl)c2)cc(=O)n1C (stereo not drawn) [Compound 53], the EC50 was 100 to 1000 nM.
CC(C)(C(=O)NCc1cc(Cl)c(C2CCC(=O)NC2=O)c(Cl)c1)c1cccc(NS(C)(=O)=O)c1 (stereo not drawn) [Compound 54] gave an EC50 of at most 100 nM.
With CC(C)(C(=O)NCc1cc(Cl)c(C2CCC(=O)NC2=O)c(Cl)c1)c1ccn2ccnc2c1 (stereo not drawn) [Compound 55] the EC50 was 100 to 1000 nM.
With CC(C)(C(=O)NCc1ccc(C2CCC(=O)NC2=O)c(Cl)c1)c1ccc(S(N)(=O)=O)cc1 (stereo not drawn) [Compound 56] the EC50 was 100 to 1000 nM.
For CC(C)(C(=O)NCc1cc(Cl)c(C2CCC(=O)NC2=O)c(Cl)c1)c1ccc(C(N)=O)c(F)c1 (stereo not drawn) [Compound 57], the EC50 was 100 to 1000 nM.
Compound CN(C)S(=O)(=O)c1ccc(C(C)(C)C(=O)NCc2cc(Cl)c(C3CCC(=O)NC3=O)c(Cl)c2)cc1 (stereo not drawn) [Compound 58] has an EC50 of 100 to 1000 nM.
Compound CC(C)(C(=O)NCc1cc(Cl)c(C2CCC(=O)NC2=O)c(Cl)c1)c1cc(F)[nH]c(=O)c1 (stereo not drawn) [Compound 59] has an EC50 of 100 to 1000 nM.
With CC(C)(C(=O)NCc1cc(Cl)c(C2CCC(=O)NC2=O)c(Cl)c1)c1cccc(S(N)(=O)=O)c1 (stereo not drawn) [Compound 60] the EC50 was at most 100 nM.
